Results reported in ChEMBL document CHEMBL4184110 (Bioorg Med Chem Lett, 2018).
Values after ≈ are worked out from the molar mass of the structure shown.

Assays:
Vitamin D3 receptor [1] = target: T1, Vitamin D3 receptor (Homo sapiens, UniProt P11473); test: Antagonist activity at VP16-fused VDR-LBD (unknown origin) expressed in HEK293T cells assessed as inhibition of ligand-induced GAL4-fused SRC1 coactivator recruitment by two-hybrid luciferase reporter gene assay; format: cell-based
T1 sequence (P11473 whole entry): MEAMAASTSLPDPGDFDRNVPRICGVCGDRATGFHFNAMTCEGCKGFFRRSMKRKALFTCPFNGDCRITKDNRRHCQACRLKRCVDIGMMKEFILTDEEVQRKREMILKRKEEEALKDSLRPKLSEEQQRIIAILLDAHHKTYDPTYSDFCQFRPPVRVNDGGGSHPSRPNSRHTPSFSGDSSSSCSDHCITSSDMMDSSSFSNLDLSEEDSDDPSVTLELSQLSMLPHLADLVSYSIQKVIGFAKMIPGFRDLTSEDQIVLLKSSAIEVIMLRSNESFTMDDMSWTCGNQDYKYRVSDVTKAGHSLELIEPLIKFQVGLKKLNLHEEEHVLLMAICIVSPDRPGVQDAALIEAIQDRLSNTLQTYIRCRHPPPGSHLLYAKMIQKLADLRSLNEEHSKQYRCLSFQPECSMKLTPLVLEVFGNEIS

[2] = target: T2, Peroxisome proliferator-activated receptor alpha (Homo sapiens, UniProt Q07869); test: Antagonist activity at CMV-fused PPARalpha-LBD-GAL4-DBD (unknown origin) expressed in HEK293T cells assessed as inhibition of GW7647-induced receptor transactivation after 16 hrs by bright-Glo luciferase reporter gene assay; format: cell-based
T2 sequence (Q07869 whole entry): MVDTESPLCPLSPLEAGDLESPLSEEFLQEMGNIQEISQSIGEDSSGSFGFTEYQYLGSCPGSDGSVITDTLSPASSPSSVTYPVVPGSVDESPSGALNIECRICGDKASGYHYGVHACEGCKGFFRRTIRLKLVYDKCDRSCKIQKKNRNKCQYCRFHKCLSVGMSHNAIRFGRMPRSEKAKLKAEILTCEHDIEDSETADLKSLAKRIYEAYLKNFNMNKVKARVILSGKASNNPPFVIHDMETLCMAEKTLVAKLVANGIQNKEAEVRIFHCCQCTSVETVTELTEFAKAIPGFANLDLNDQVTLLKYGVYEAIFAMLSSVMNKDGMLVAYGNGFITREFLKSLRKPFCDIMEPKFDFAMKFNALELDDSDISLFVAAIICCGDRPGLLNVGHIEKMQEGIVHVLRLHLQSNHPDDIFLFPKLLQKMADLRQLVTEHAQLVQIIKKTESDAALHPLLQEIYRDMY

Vitamin D3 receptor [3] = target: T1, Vitamin D3 receptor; test: Agonist activity at VDR-LBD (unknown origin) assessed as recruitment of alexa fluor 647-labeled SRC2-3 after 30 mins by fluorescence polarization assay
[4] = target: T3, Peroxisome proliferator-activated receptor delta (Homo sapiens, UniProt Q03181); test: Transactivation of CMV-fused PPARdelta-LBD-GAL4-DBD (unknown origin) expressed in HEK293T cells by luciferase reporter gene assay; format: cell-based
T3 sequence (Q03181 whole entry): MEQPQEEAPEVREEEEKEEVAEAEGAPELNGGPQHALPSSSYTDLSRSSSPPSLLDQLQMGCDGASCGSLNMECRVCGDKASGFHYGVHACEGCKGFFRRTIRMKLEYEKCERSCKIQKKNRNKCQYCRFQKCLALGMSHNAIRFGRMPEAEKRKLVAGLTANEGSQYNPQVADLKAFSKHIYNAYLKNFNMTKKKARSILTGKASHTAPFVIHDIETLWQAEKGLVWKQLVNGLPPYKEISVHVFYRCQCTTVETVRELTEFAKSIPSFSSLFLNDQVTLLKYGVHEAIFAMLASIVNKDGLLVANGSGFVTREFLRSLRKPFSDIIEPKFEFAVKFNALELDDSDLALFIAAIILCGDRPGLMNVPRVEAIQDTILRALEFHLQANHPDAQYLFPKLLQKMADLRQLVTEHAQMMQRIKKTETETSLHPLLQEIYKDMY

[5] = target: T4, Retinoic acid receptor RXR-alpha (Homo sapiens, UniProt P19793); test: Antagonist activity at CMV-fused RXRalpha-LBD-GAL4-DBD (unknown origin) expressed in HEK293T cells assessed as inhibition of bexarotene-induced receptor transactivation after 16 hrs by bright-Glo luciferase reporter gene assay; format: cell-based
T4 sequence (P19793 whole entry): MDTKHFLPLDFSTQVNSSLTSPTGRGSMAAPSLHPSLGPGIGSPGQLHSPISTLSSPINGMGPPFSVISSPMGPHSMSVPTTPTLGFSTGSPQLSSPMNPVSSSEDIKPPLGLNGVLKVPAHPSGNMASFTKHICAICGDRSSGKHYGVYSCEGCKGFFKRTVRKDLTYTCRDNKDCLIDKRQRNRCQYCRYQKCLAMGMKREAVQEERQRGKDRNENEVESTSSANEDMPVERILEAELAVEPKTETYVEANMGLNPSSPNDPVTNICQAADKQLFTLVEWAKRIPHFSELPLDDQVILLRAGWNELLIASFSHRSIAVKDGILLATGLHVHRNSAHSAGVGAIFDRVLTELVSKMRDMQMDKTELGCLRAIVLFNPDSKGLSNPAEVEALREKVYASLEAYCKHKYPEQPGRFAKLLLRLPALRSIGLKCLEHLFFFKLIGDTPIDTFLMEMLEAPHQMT

Vitamin D3 receptor [6] = target: T1, Vitamin D3 receptor; test: Antagonist activity at CMV-fused VDR (unknown origin) expressed in HEK293T cells assessed as reduction in 24-hydroxylase promoter mediated transcriptional activity by luciferase reporter gene assay; format: cell-based; conditions: read-out: IC50
[7] = target: T5, Thyroid hormone receptor alpha (Homo sapiens, UniProt P10827); test: Antagonist activity at CMV-fused TRalpha-LBD-GAL4-DBD (unknown origin) expressed in HEK293T cells assessed as inhibition of T3-induced receptor transactivation after 16 hrs by bright-Glo luciferase reporter gene assay; format: cell-based
T5 sequence (P10827 whole entry): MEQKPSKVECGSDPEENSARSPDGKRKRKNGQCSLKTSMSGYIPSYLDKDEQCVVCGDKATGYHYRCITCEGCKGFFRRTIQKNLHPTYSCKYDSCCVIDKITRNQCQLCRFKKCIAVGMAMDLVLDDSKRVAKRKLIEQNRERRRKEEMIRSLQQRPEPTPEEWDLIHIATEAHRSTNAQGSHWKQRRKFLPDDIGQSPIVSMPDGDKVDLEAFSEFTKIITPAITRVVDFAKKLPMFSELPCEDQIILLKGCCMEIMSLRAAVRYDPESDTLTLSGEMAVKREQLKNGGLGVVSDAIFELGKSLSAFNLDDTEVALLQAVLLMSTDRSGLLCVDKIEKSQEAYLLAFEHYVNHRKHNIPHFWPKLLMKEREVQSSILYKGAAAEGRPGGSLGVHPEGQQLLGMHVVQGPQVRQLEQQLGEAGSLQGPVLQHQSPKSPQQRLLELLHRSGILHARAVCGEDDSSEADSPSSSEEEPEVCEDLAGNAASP

[8] = Aqueous solubility of the compound in DMSO at 500 uM by filter based assay; format: physicochemical
HEK-293T = test: Cytotoxicity against HEK293T cells assessed as decrease in cell viability at 100 uM after 18 hrs by Cell Titer-Glo based luminescence assay relative to control; conditions: human

COC(=O)Cc1ccc(OCc2oc(-c3cccc(OC)c3)nc2C)cc1
IC50 (Vitamin D3 receptor [1]): 13.9 µM
IC50 [2]: 1.9 µM
EC50 (Vitamin D3 receptor [3]): Not Active
EC50 [4]: Not Active
IC50 [5]: 2 µM
IC50 (Vitamin D3 receptor [6]): 0.66 µM
IC50 [7]: 4.2 µM
solubility kinetic at 500 µM [8]: 45.3 µM (≈ 16.6 µg/mL)
Activity (HEK-293T): 63.4%

COC(=O)Cc1ccc(OCc2oc(-c3ccccc3OC)nc2C)cc1
IC50 (Vitamin D3 receptor [1]): 11.1 µM
IC50 [2]: 8 µM
EC50 (Vitamin D3 receptor [3]): Not Active
EC50 [4]: Not Active
IC50 [5]: 4.4 µM
IC50 (Vitamin D3 receptor [6]): 3.82 µM
IC50 [7]: 8.4 µM
solubility kinetic at 500 µM [8]: 61.6 µM (≈ 22.6 µg/mL)
Activity (HEK-293T): 31.2%

COC(=O)c1ccc(OCc2oc(-c3cccc(OC)c3)nc2C)cc1
IC50 (Vitamin D3 receptor [1]): 8.89 µM
IC50 [2]: 3.5 µM
EC50 (Vitamin D3 receptor [3]): Not Active
EC50 [4]: Not Active
IC50 [5]: 4.6 µM
IC50 (Vitamin D3 receptor [6]): 5.67 µM
IC50 [7]: 5.4 µM
solubility kinetic at 500 µM [8]: 18.5 µM (≈ 6.54 µg/mL)
Activity (HEK-293T): 35.6%

COC(=O)c1cccc(OCc2oc(-c3ccccc3OC)nc2C)c1
IC50 (Vitamin D3 receptor [1]): 7.33 µM
IC50 [2]: 6.6 µM
EC50 (Vitamin D3 receptor [3]): Not Active
EC50 [4]: Not Active
IC50 [5]: 11.1 µM
IC50 (Vitamin D3 receptor [6]): 2.5 µM
IC50 [7]: 10.1 µM
solubility kinetic at 500 µM [8]: 44.1 µM (≈ 15.6 µg/mL)
Activity (HEK-293T): 39.5%
